Our source for the GI50 and TGI values is PubChem BioAssay (NCI).

Several values for one entry are separate records, joined by “and”; a condition that tells them apart may be missing. Equal entries are not always repeated.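 48-hour exposure; five concentrations; linearly interpolated endpoints. GI50: concentration for 50% inhibition of growth. TGI: total growth inhibition.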

In this assay the test system is MDA-MB-468 breast. The experiment in a line: inhibition of tumour cell growth, NCI panel, 48 h.
Regarding `Cc1sc2nc(NCCc3c[nH]c4ccc(Cl)cc34)[nH]c(=O)c2c1C`, the GI50 was 2.13 µM and the TGI was 4.68 µM.

For the compound `Cc1ccc(N(CSc2ccc(Cl)cc2)CSc2ccc(Cl)cc2)cc1`, the GI50 is 1.91 µM and the TGI was determined as 6.23 µM.

With `CC(=O)Oc1ccccc1C(=O)N=C1[Se]CCCN1C(=O)c1ccccc1OC(C)=O`, the GI50 was 3.38 µM and the TGI was determined as 10.9 µM.

With `Cc1c[n+](Cc2ccc3ccccc3c2)cn1Cc1ccc2ccccc2c1`, the GI50 is 0.362 µM and the TGI turned out to be 1.35 µM.

In the case of `Cc1n(Cc2ccc3ccccc3c2)cc[n+]1Cc1ccc2ccccc2c1`, the GI50 is 0.252 µM and the TGI stood at 0.819 µM.

With `Cc1ccc(Nc2nc(N)c(C(=O)c3ccc(C#N)cc3)s2)cc1`, the GI50 is 0.229 µM and the TGI was found to be 0.663 µM.

Turning to `O=C(Nc1ccc(Cl)cc1F)c1cc(Br)ccc1O`, the GI50 was 1.13 µM and the TGI amounted to 4.45 µM.

Consider `Cc1cc(NC(=O)c2ccc(C)c(Nc3nccc(-c4cccnc4)n3)c2)cc(-n2cnc(C)c2)c1`, for which the GI50 is 1.22 µM and the TGI was determined as 3.27 µM.

As for `CCN1C(=O)N(CC)C2C1NC(=S)N2/N=C/C=C/c1cccs1` (stereo not drawn), the GI50 was 0.198 µM.

Turning to `CC(=O)Oc1ccc(Nc2c3ccccc3nc3ccccc23)cc1`, the GI50 is 0.913 µM and the TGI was determined as 3.01 µM.

As to `O=C(Nc1cccc(Cl)c1)c1cc2ccccc2cc1O`, the GI50 was 2.2 µM and 1.91 µM; the TGI is 10.4 µM and 6.67 µM.

With `Cc1[nH]n(-c2cccc(Cl)c2)c(=O)c1/C=C1\C=Nc2ccc(Br)cc21`, the GI50 was 3.97 µM and the TGI stood at 29.2 µM.

For `CCCCCc1c(C)[nH]c(/C=C2\N=C(c3ccc[nH]3)C=C2CC)c1C`, the GI50 was 0.0215 µM and the TGI came to 0.0904 µM.

As to `CCN(CC)CCOc1ccc(/C(=C(\C)c2ccc(F)c(OC)c2)c2ccc(Cl)cc2)cc1`, the GI50 was 1.91 µM and the TGI was 4.23 µM.

For the compound `Nc1nc(Br)nc2c1ncn2C1CC(O)C(CO)O1` (stereo not drawn), the GI50 is over 100 µM and the TGI is over 100 µM.

On to `C#CC(=O)Nc1cccc(Nc2nc3c(c(NCc4ccccc4)n2)CCCC3)c1`, for which the GI50 was 0.168 µM and the TGI is 0.573 µM.

Take `O=c1[nH]c2cc(Cl)ccc2n1C1CCN(CCCC(c2ccc(F)cc2)c2ccc(F)cc2)CC1`: the GI50 was 1.65 µM and the TGI came to 3.14 µM.

For `NC(=O)C(=CNc1nc(-c2ccc(Cl)c(Cl)c2)cs1)C(N)=O`, the GI50 is over 100 µM and the TGI is over 100 µM.

Take `CCN(CC)CC(C)(C)C(=O)/C=C/c1ccc(Cl)c(Cl)c1`: the GI50 was 1.69 µM and the TGI turned out to be 3.42 µM.

Turning to `O=C1/C(=C\c2cccn2Cc2ccccc2)c2ccccc2N1c1c(Cl)cccc1Cl`, the GI50 was 0.118 µM and the TGI came out at 0.463 µM.

Take `CC(=O)O[C@@H]1C[C@]2(C(C)C)O[C@@]1(C)[C@@H]1CCC(C)=C1[C@@H]2OC(=O)/C=C/c1ccccc1`: the GI50 was 24.2 µM and the TGI was over 100 µM.

In the case of `CN1CCc2c(Sc3ccc(C(=O)NO)cc3)c3ccccc3n2C1`, the GI50 was 1.12 µM and the TGI came out at 2.92 µM.

With `c1ccc2c3ccn4cc5c(cc4c-3nc2c1)CCCC5`, the GI50 was 1.39 µM and the TGI was 3.6 µM.

As to `N#CC1(C2SCCS2=O)C2=C(C(=O)c3ccccc3C2=O)N2CCCC21` (stereo not drawn), the GI50 was 0.467 µM and the TGI worked out at 1.9 µM.

Take `Nc1nc(Nc2ccccc2)c2ncn(Cc3cc4c(cc3Br)OCO4)c2n1`: the GI50 is under 0.01 µM and the TGI was 18.2 µM.

As for `O=C(N/N=C\c1cc(Br)ccc1O)c1ccncc1`, the GI50 is 1.07 µM and the TGI was found to be 5.51 µM.

Regarding `Cc1ccc2c(n1)C(=O)C(Cl)=C(Nc1ccc(C(F)(F)F)cc1)C2=O`, the GI50 was 1.89 µM and the TGI is 4 µM.

As to `COc1cc2cn3c4ccc(O)cc4[nH]c(=O)c3c2cc1OC`, the GI50 is 0.02 µM and the TGI was 0.0568 µM.

Take `Cc1c(C2Nc3ccccc3C2C)[nH]c2ccccc12` (stereo not drawn): the GI50 is 10.4 µM and the TGI stood at 27.8 µM.

As to `COC(=O)[C@@H](NC(=O)[C@@H](OC)[C@@H]1Cc2cc3cc(OC4CC(OC5CC(O)C(O)C(C)O5)C(O)C(C)O4)c(C)c(O)c3c(O)c2C(=O)[C@H]1OC1CC(OC2CC(OC3CC(C)(O)C(O)C(C)O3)C(O)C(C)O2)C(O)C(C)O1)C(C)C` (stereo partly drawn), the GI50 was 0.131 µM and the TGI was 2.6 µM.

For `CCc1cccc2c3c(sc12)C(c1ccc(Cl)cc1)C(C#N)=C(/N=C/c1ccc(Cl)cc1)O3` (stereo not drawn), the GI50 is 0.565 µM and the TGI amounted to 2.46 µM.

Turning to `C#C[C@]1(O)CC[C@H]2[C@@H]3CC=C4c5sc(Nc6ccccc6)nc5CC[C@]4(C)[C@H]3CC[C@@]21C`, the GI50 was 1.71 µM and the TGI came out at 4.25 µM.

Consider `O=C(CN(C1CCCCC1)C1CCCCC1)Nc1ccc(S(=O)(=O)c2ccc(NC(=O)CN(C3CCCCC3)C3CCCCC3)cc2)cc1`, for which the GI50 is 1.04 µM and the TGI was found to be 2.93 µM.

With `COc1ccc(CNc2c3ccccc3nc3ccccc23)cc1OC`, the GI50 was 1.58 µM and the TGI amounted to 4.14 µM.

With `CN(C)c1ccc2nc3ccc(=O)cc-3sc2c1`, the GI50 is 1.49 µM and the TGI was 6.99 µM.

With `O=C(CCCN1CC=C(n2c(=O)[nH]c3ccccc32)CC1)c1ccc(F)cc1`, the GI50 is 18.8 µM and the TGI came out at 59.5 µM.

On to `CC(=O)Oc1ccccc1C(=O)N=C1[Se]CCN1C(=O)c1ccccc1OC(C)=O`, for which the GI50 is 0.74 µM and the TGI stood at 2.67 µM.
